Experimental data reported in article PMC10294832, “Investigation of Naphthyl–Polyamine Conjugates as Antimicrobials and Antibiotic Enhancers” (Antibiotics, 2023).
Values after ≈ are worked out from the molar mass of the structure shown. Values joined by “and” are separate entries in the source; they are usually repeats but may differ in a detail not shown here. Equal values may be shown once. Read-outs that look alike come from different tables or passages of the source. One block for each molecule: values may come before it.

Legend:
[1] = test system: S. aureus (ATCC 25,923 or ATCC 29213); assay: Antimicrobial MIC, S. aureus; type: cell-based, Staphylococcus aureus; conditions: Staphylococcus aureus, mean (n = 3)
Procedure: (§1) The susceptibility of bacterial strains S. aureus (ATCC 25,923 or 29213), E. coli (ATCC 25922), and P. aeruginosa (ATCC 27853) to antibiotics and compounds was determined according to previously reported protocols. Additional antimicrobial evaluation against MRSA (ATCC 43300), Klebsiella pneumoniae (ATCC 700603), Acinetobacter baumannii (ATCC 19606), Candida albicans (ATCC 90028), and Cryptococcus neoformans (ATCC 208821) was undertaken at the Community for Open Antimicrobial Drug Discovery at The University of Queensland (Australia) according to their standard protocols as reported previously.

[2] = test system: MRSA (ATCC 43300); assay: Antimicrobial MIC, MRSA; type: cell-based, methicillin-resistant Staphylococcus aureus; conditions: read-out: MIC MRSA
Procedure: as §1

[3] = test system: P. aeruginosa (PAO1 or ATCC 27853); assay: Antimicrobial MIC, P. aeruginosa; type: cell-based; conditions: Pseudomonas aeruginosa
Procedure: as §1

[4] = test system: E. coli (ATCC 25922); assay: Antimicrobial MIC, E. coli; type: cell-based, Escherichia coli; conditions: Escherichia coli, ATCC25922, E. coli (ATCC 25922); mean (n = 2)
Procedure: as §1

[5] = test system: K. pneumoniae (ATCC 700603); assay: Antimicrobial MIC, K. pneumoniae; type: cell-based; conditions: Klebsiella pneumoniae, ATCC700603, mean (n = 2)
Procedure: as §1

[6] = test system: A. baumannii (ATCC 19606); assay: Antimicrobial MIC, A. baumannii; type: cell-based, Acinetobacter baumannii; conditions: Acinetobacter baumannii, ATCC19606, A. baumannii (ATCC 19606); mean (n = 2)
Procedure: as §1

[7] = test system: C. albicans (ATCC 90028); assay: Antifungal MIC, C. albicans; type: cell-based; conditions: Candida albicans, ATCC90028, mean (n = 2)
Procedure: as §1

[8] = test system: C. neoformans (ATCC 208821); assay: Antifungal MIC, C. neoformans; type: cell-based, Cryptococcus neoformans; conditions: Cryptococcus neoformans, ATCC208821, C. neoformans (ATCC 208821); mean (n = 2)
Procedure: as §1

[9] = Cytotoxicity assay; type: cell-based, human; conditions: human, HEK293 human embryonic kidney cells, concentration at 50% cytotoxicity on HEK293 cells; mean (n = 2)
Procedure: Cytotoxicity assays were conducted using the protocols previously reported.

[10] = test system: human red blood cells; assay: Hemolytic assay; type: cell-based; conditions: concentration at 10% hemolytic activity on human red blood cells; mean (n = 2)
Procedure: Hemolysis assays were conducted using the protocols previously reported.

[11] = test system: P. aeruginosa (ATCC 27853); assay: Enhancement of doxycycline activity; type: cell-based, Pseudomonas aeruginosa; conditions: for Dox/P.a: concentration required to restore doxycycline activity (combination MIC): doxycycline fixed at 4.5 µM (2 µg/mL); for Dox/P.a: concentration required to restore doxycycline activity (combination MIC) / Concentration of test compound required to restore doxycycline activity: P. aeruginosa (ATCC 27853); for Dox/P.a fold change: ratio between intrinsic MIC of test compound and combination MIC, doxycycline 4.5 µM, P. aeruginosa
[12] = test system: E. coli (ATCC 25922); assay: Enhancement of erythromycin activity; type: cell-based, Escherichia coli; conditions: for Eryth/E.c: concentration required to restore erythromycin activity (combination MIC): erythromycin fixed at 10.9 µM (8 µg/mL), E. coli (ATCC 25922); for Eryth/E.c fold change: ratio between intrinsic MIC of test compound and combination MIC, erythromycin 10.9 µM, E. coli
Procedure: Restoring enhancer concentrations were determined using previously reported protocols.

[13] = Staphylococcus aureus, MRSA (ATCC 43300), mean (n = 2)
[14] = P. aeruginosa (PAO1 or ATCC 27853), mean (n = 3), read-out: MIC P. a

MIC [1]: 256 µM | MIC [2, 13]: > 41 µM | MIC [3, 14]: > 256 µM | MIC [4]: 256 µM | MIC [5]: > 41 µM | MIC [6]: > 41 µM | MIC [7]: > 41 µM | MIC [8]: > 41 µM | Dox/P.a: concentration required to restore doxycycline activity (combination MIC) [11]: 64 µM | Eryth/E.c: concentration required to restore erythromycin activity (combination MIC) [12]: 64 µM
SMILES: O=C(NCCCNCCCCCCCNCCCNC(=O)c1cccc2ccccc12)c1cccc2ccccc12.O=C(O)C(F)(F)F.O=C(O)C(F)(F)F [Compound 17c, N^1,N^7-Bis(3-(1-naphthamido)propyl)heptane-1,7-diaminium 2,2,2-trifluoroacetate]
IC50 [9]: > 41 µM | Hemolysis HC10 [10]: >41.0 µM | Eryth/E.c fold change [12]: 4 fold

MIC [1]: 50 µM | MIC [2, 13]: > 40.3 µM | MIC [3, 14]: > 100 µM | MIC [4]: 100 µM | MIC [5]: > 40.3 µM | MIC [6]: > 40.3 µM | MIC [7]: > 40.3 µM | MIC [8]: > 40.3 µM | Eryth/E.c: concentration required to restore erythromycin activity (combination MIC) [12]: 31.5 µM
SMILES: O=C(NCCCNCCCCCCCCNCCCNC(=O)c1cccc2ccccc12)c1cccc2ccccc12.O=C(O)C(F)(F)F.O=C(O)C(F)(F)F [Compound 17d, N^1,N^8-Bis(3-(1-naphthamido)propyl)octane-1,8-diaminium 2,2,2-trifluoroacetate]
IC50 [9]: > 40.3 µM | Hemolysis HC10 [10]: >40.3 µM | Eryth/E.c fold change [12]: 3 fold

MIC [1]: 244 µM | MIC ([2]; MRSA (ATCC 43300), mean (n = 2)): 9.72 µM | MIC [2, 13]: 9.7 µM | MIC [3, 14]: 608 µM | MIC [4]: 608 µM | MIC [5]: > 38.9 µM | MIC [6]: > 38.9 µM | MIC [7]: > 38.9 µM | MIC [8]: 38.9 µM | Dox/P.a: concentration required to restore doxycycline activity (combination MIC) [11]: 608 µM | Eryth/E.c: concentration required to restore erythromycin activity (combination MIC) [12]: 122 µM
SMILES: O=C(NCCCNCCCCCCCCCCNCCCNC(=O)c1cccc2ccccc12)c1cccc2ccccc12.O=C(O)C(F)(F)F.O=C(O)C(F)(F)F [Compound 17e, N^1,N^10-Bis(3-(1-naphthamido)propyl)decane-1,10-diaminium 2,2,2-trifluoroacetate]
IC50 [9]: 23.7 µM | Hemolysis HC10 [10]: >38.9 µM | Dox/P.a fold change [11]: 1 fold | Eryth/E.c fold change [12]: 5 fold

MIC [1]: 25 µM | MIC [2, 13]: 0.29 µM | MIC [3, 14]: 300 µM | MIC [4]: 100 µM | MIC [5]: > 37.6 µM | MIC [6]: 0.29 µM | MIC [7]: > 37.6 µM | MIC [8]: 0.29 µM | Dox/P.a: concentration required to restore doxycycline activity (combination MIC) [11]: 300 µM | Eryth/E.c: concentration required to restore erythromycin activity (combination MIC) [12]: 50 µM
SMILES: O=C(NCCCNCCCCCCCCCCCCNCCCNC(=O)c1cccc2ccccc12)c1cccc2ccccc12.O=C(O)C(F)(F)F.O=C(O)C(F)(F)F [Compound 17f, N^1,N^12-Bis(3-(1-naphthamido)propyl)dodecane-1,12-diaminium 2,2,2-trifluoroacetate]
IC50 [9]: > 37.6 µM | Hemolysis HC10 [10]: >37.6 µM | Dox/P.a fold change [11]: 1 fold | Eryth/E.c fold change [12]: 2 fold

MIC [1]: 568 µM | MIC [2, 13]: > 36.3 µM | MIC [3, 14]: 568 µM | MIC [4]: 568 µM | MIC [5]: > 36.3 µM | MIC [6]: > 36.3 µM | MIC [7]: > 36.3 µM | MIC [8]: > 36.3 µM | Dox/P.a: concentration required to restore doxycycline activity (combination MIC) [11]: 568 µM | Eryth/E.c: concentration required to restore erythromycin activity (combination MIC) [12]: 568 µM
SMILES: O=C(CCC(=O)Nc1cccc2ccccc12)NCCCNCCCCNCCCNC(=O)CCC(=O)Nc1cccc2ccccc12.O=C(O)C(F)(F)F.O=C(O)C(F)(F)F [Compound 18a, N^1,N^4-Bis(3-(4-(naphthalen-1-ylamino)-4-oxobutanamido)propyl)butane-1,4-diaminium 2,2,2-trifluoroacetate]
Dox/P.a fold change [11]: 1 fold | Eryth/E.c fold change [12]: 1 fold

MIC [1]: 57 µM | MIC [2, 13]: 18.2 µM | MIC [3, 14]: 568 µM | MIC [4]: 227 µM | MIC [5]: > 36.3 µM | MIC [6]: > 36.3 µM | MIC [7]: > 36.3 µM | MIC [8]: > 36.3 µM | Dox/P.a: concentration required to restore doxycycline activity (combination MIC) [11]: 28 µM
SMILES: O=C(CCC(=O)Nc1ccc2ccccc2c1)NCCCNCCCCNCCCNC(=O)CCC(=O)Nc1ccc2ccccc2c1.O=C(O)C(F)(F)F.O=C(O)C(F)(F)F [Compound 20a, N^1,N^4-Bis(3-(4-(naphthalen-2-ylamino)-4-oxobutanamido)propyl)butane-1,4-diaminium 2,2,2-trifluoroacetate]
IC50 [9]: > 36.3 µM | Hemolysis HC10 [10]: >36.3 µM | Concentration of test compound required to restore doxycycline activity ([11]; doxycycline concentration 2 µg/mL): 28.4 µM | Concentration of test compound required to restore doxycycline activity ([11]; doxycycline concentration 4 µg/mL): 14.2 µM | Concentration of test compound required to restore doxycycline activity ([11]; doxycycline concentration 6 µg/mL): 14.2 µM | Concentration of test compound required to restore doxycycline activity ([11]; doxycycline concentration 8 µg/mL): 3.5 µM | Dox/P.a fold change [11]: 20 fold

Further lines, the molecule ahead of its results:

SMILES: O=C(N[C@H](CO)[C@H](O)c1ccc([N+](=O)[O-])cc1)C(Cl)Cl [chloramphenicol, reference compound]
MIC [1]: 1.5 to 3 µM (≈ 0.485 to 0.969 µg/mL)

SMILES: C[C@H]1c2cccc(O)c2C(=O)C2=C(O)[C@]3(O)C(=O)C(C(N)=O)=C(O)[C@@H](N(C)C)[C@@H]3[C@@H](O)[C@@H]21 [doxycycline, reference compound]
MIC ([3]; antibiotic alone, P. aeruginosa, read-out: intrinsic MIC against P. aeruginosa): 40 µg/mL and 90 µM

SMILES: OC(Cn1cncn1)(Cn1cncn1)c1ccc(F)cc1F [fluconazole, reference compound]
MIC [7]: 0.4 µM (≈ 0.123 µg/mL) | MIC [8]: 26 µM (≈ 7.96 µg/mL)

SMILES: [H]/N=C(/N)N[C@H]1[C@H](O)[C@@H](O)[C@H](O[C@@H]2O[C@@H](C)[C@](O)(C=O)[C@H]2O[C@@H]2O[C@@H](CO)[C@H](O)[C@@H](O)[C@@H]2NC)[C@@H](N/C(N)=N\[H])[C@@H]1O [streptomycin, reference compound]
MIC [1]: 21.5 µM (≈ 12.5 µg/mL) | MIC [3, 14]: 21.5 µM (≈ 12.5 µg/mL)

SMILES: CC/C(=C(\c1ccccc1)c1ccc(OCCN(C)C)cc1)c1ccccc1 [tamoxifen, reference compound]
IC50 [9]: 24 µM

SMILES: CN[C@H](CC(C)C)C(=O)N[C@H]1C(=O)N[C@@H](CC(N)=O)C(=O)N[C@H]2C(=O)N[C@H]3C(=O)N[C@H](C(=O)N[C@H](C(=O)O)c4cc(O)cc(O)c4-c4cc3ccc4O)[C@H](O)c3ccc(c(Cl)c3)Oc3cc2cc(c3O[C@@H]2O[C@H](CO)[C@@H](O)[C@H](O)[C@H]2O[C@H]2C[C@](C)(N)[C@H](O)[C@H](C)O2)Oc2ccc(cc2Cl)[C@H]1O [vancomycin, reference compound]
MIC ([2]; Staphylococcus aureus): 0.7 µM (≈ 1.01 µg/mL)
